The test system of the assay is skin cells. Put plainly: Topical administration to SKH-1 hairless mice, skin cell proliferation by ^3H-thymidine incorporation. The assay is classed as in vivo. The following applies: 1 μg, 10 μg or 50 μg once a day, 7 days, analog given with Novasome, compared with hPTH-(1-34) and untreated control (FIG. 6). As for the experimental part:
FIG. 6 is a histogram showing the effects of no treatment (Control) or of topical administration of 1 μg, 10 μg, or 50 μg of hPTH-(1-34) (1-34) or [Leu^27]cyclo(Glu^22-Lys^26)-hPTH-(1-31)-NH2 (c1-c31) to SKH-1 mice on the proliferation of skin cells, as measured by ^3H-thymidine incorporation (counts per minute/μg protein) in SKH-1 mice after 7 days of administration.
SKH-1 hairless mice were administered the human parathyroid hormone hPTH analog [Leu^27]cyclo(Glu^22-Lys^26)-hPTH-(1-31)-NH2 with Novasome (a liposomal formulation available, for example, from IGI, Inc., Buena, N.J.) or hPTH-(1-34) at dosages of 1 μg, 10 μg, or 50 μg once a day, or were left untreated (control). On day 7, the mice were injected twice with ^3H-thymidine, and on day 8, the mice were injected with ^3H-thymidine and bromodeoxyuridine (1.5 mg/mouse) and sacrificed within 3 hours. ^3H-thymidine incorporation was then assessed, using standard methods. The results of this study are shown in FIG. 6, which is a histogram showing the effects of no treatment (Control) or of topical administration of 1 μg, 10 μg, or 50 μg of hPTH-(1-34) (1-34) or [Leu^27]cyclo(Glu^22-Lys^26)-hPTH-(1-31)-NH2 (c1-c31) on proliferation of skin cells, as measured by ^3H-thymidine incorporation (counts per minute/μg protein) in SKH-1 mice. […]
For orientation: Uptake of a labelled nucleoside into DNA is a usual measure of proliferation.

Bridges are numbered along the chain shown (N, C = ends). Where no end group is shown, it is not given here.

For “[Leu^27]cyclo(Glu^22-Lys^26)-hPTH-(1-31)-NH2 (SVSEIQLMHNLGKHLNSMERVEWLRKLLQDV-NH2; lactam 22-26; N-terminus assumed; SMILES CC[C@H](C)[C@H](NC(=O)[C@H](CCC(=O)O)NC(=O)[C@H](CO)NC(=O)[C@@H](NC(=O)[C@@H](N)CO)C(C)C)C(=O)N[C@@H](CCC(N)=O)C(=O)N[C@@H](CC(C)C)C(=O)N[C@@H](CCSC)C(=O)N[C@@H](Cc1c[nH]cn1)C(=O)N[C@@H](CC(N)=O)C(=O)N[C@@H](CC(C)C)C(=O)NCC(=O)N[C@@H](CCCCN)C(=O)N[C@@H](Cc1c[nH]cn1)C(=O)N[C@@H](CC(C)C)C(=O)N[C@@H](CC(N)=O)C(=O)N[C@@H](CO)C(=O)N[C@@H](CCSC)C(=O)N[C@@H](CCC(=O)O)C(=O)N[C@@H](CCCNC(=N)N)C(=O)N[C@H](C(=O)N[C@H]1CCC(=O)NCCCC[C@@H](C(=O)N[C@@H](CC(C)C)C(=O)N[C@@H](CC(C)C)C(=O)N[C@@H](CCC(N)=O)C(=O)N[C@@H](CC(=O)O)C(=O)N[C@H](C(N)=O)C(C)C)NC(=O)[C@H](CCCNC(=N)N)NC(=O)[C@H](CC(C)C)NC(=O)[C@H](Cc2c[nH]c3ccccc23)NC1=O)C(C)C)”, the “proliferation of skin cells, as measured by ^3H-thymidine incorporation” value is recorded as “significantly more effective at inhibiting ^3H-thymidine incorporation than hPTH-(1-34)”. To “cyclo(Lys^26-Asp^30) [Leu^27]-hPTH-(1-31)-NH2” belongs “Decreases Skin Cell Proliferation”.

(Values after US20050065071A1, “Cyclic analogs of human parathyroid hormone for the treatment of conditions characterized by hyperproliferative skin cells” (National Research Council of Canada, priority 2003, published 2005).)
